For one assay, the system named is DENV-2. Briefly: DENV-2 intracellular dsRNA (Cellomics) in A549 cells. Type of assay: cell-based, dengue virus. Here is the method: (§1) Error bars represent SD among 3 biological replicates. Cultured A549 cells were treated with the indicated concentrations of CA (1=Mock, 2=0 M, 3=1 μM, 4=5 M, 5=10 M, 6=20 µM) or PF-429242 (7=15 M) for 1 h before being washed with PBS and infected with DENV-2, DENV-3, or DENV-4 at MOI 1.0 for 48 h. Cells were labeled for viral dsRNA with […] then imaged and quantified using the Cellomics ArrayScan™ VTI High Content Screening system.
(§2) Viruses. ZIKV: ZIKV strain PRVABC59 (Puerto Rico/2015) (ATCC #VR-1843) was used in these studies, specifically three separate stocks generated in Vero E6 cells with titres of 1.35×10^8 pfu/mL, 1.0×10^7 pfu/mL, and 2.9×10^6 pfu/mL respectively. DENV strains: DENV-2 strain NGC, DENV-3 strain H-87, and DENV-4 strain H-241 were kindly provided by National Microbiology Laboratory, Winnipeg, MB, Canada.
(§3) A549 cells were seeded onto Corning tissue culture treated 96 well plates and incubated at 37 degrees Celsius and 5% CO2 for 24 h. CA was diluted in MEM complete media to concentrations of 1 μM, 5 μM, 10 μM, 20 μM, including a 0 μM condition. Diluted CA was added to each well and cells were incubated at 37 degrees Celsius and 5% CO2 for 1 h. After 1 h, cells were washed once with PBS to remove CA and were then infected with DENV-2, -3 or -4 at an MOI of 1. […] Labeled 96 well plates were imaged and quantified using the Cellomics ArrayScan VTI. […]

Assay [1] concerns ZIKV. Briefly: Secreted NS1 (sNS1) ELISA, ZIKV-infected A549 cells. The class given is cell-based, Zika virus. As to conditions: Zika virus, 24 h pre-treatment, MOI 1.0, 2 d. The method, then:
Error bars represent SD among 2 biological replicates.
Cultured A549 cells were treated with various concentrations of CA or PF-429242 for 24 h before being washed with PBS and inoculated with ZIKV (ZIKV strain VR 1843, Puerto Rico, 2015; ATCC) at MOI 1.0 for 1 h. Following the removal of the inoculum, cells were incubated in fresh media for 2 d before the supernatant was collected, clarified, and secreted NS1 protein abundance was measured by an ELISA kit (BioFront Technologies) according to the manufacturer's instructions. Curve fitting was performed in Igor Pro (WaveMetrics) using a hyperbolic fit algorithm (FIG. 4; upper and middle plots) and IC50 and TI values obtained. IC50 and TI values were also obtained for CA via plaque assay (PFU; FIG. 4, lower plot). FIG. 4 (upper plot) is an ED50 curve for the PF inhibitor based on the detection of secreted Non-Structural protein 1 (sNS1), secreted viral biomarker. sNS1 was detected using an Elisa test (commercially available). FIG. 4 (middle plot) is an ED50 curve for CA based on the detection of secreted Non-Structural protein 1 (sNS1), secreted viral biomarker. sNS1 was detected using an Elisa test (commercially available).
In general terms: ELISA stands for enzyme-linked immunosorbent assay.

Another assay addresses T1, V-ATPase (Homo sapiens, UniProt P27449).
T1 construct: endogenous in cells; host or cells: A549 cells (ATCC #CCL-185, or acquired from Synthego)
Briefly: Acridine orange vital staining of intracellular organelles of A549 cells (V-ATPase inhibition). The class given is cell-based. As to conditions: CA 250 nM, 6 h. Here is the method: Cultured A549 cells were treated with 1 μM CD, or 250 nM CA or the V-ATPase specific inhibitor bafilomycin A1 (100 nm) for 6 h. After removing the culture medium and washing the cells with Hanks' balanced salt solution (HBSS), a 1:4000 dilution of acridine orange (2% solution, Polysciences Inc.) in HBSS was added to cells and incubated for 10 min. Cells were then washed again with HBSS and analyzed by fluorescence microscopy. In color images, a red color corresponds to the protonated version of the molecule, which permeates acidic organelles and becomes sequestered following protonation. One representative of 3 biological replicates is shown.

For the next assay, the system named is DENV-4. Kind of assay: DENV-4 intracellular dsRNA (Cellomics) in A549 cells. The class given is cell-based, dengue virus. Here is the method:
as §1, §2, §3

The test system of the next assay is SARS-CoV-2. Kind of assay: SARS-CoV-2 intracellular viral RNA and nucleocapsid protein in Caco-2 cells. The class given is cell-based.
For assay [2], the system named is ZIKV. Briefly: Extracellular ZIKV titer in infected brain organoids. Type of assay: cell-based, Zika virus. The note with it: 1 μM CA, 72 hours. Here is the method:
FIG. 18 is a plot showing extracellular ZIKV titer for four brain organoid systems after treatment with 1 μM CA for 72 hours in comparison to untreated controls.
FIG. 17 is a schematic showing the general method 20 used in Example 6. Referring to FIG. 17, following growth of the brain organoids in STEMdiff™ media 22 (4 organoids/well), the media was aspirated 24. Then, 500 μL ZIKV at the desired MOI in fresh media was added 26 and the brain organoids incubated at 37° C. for 3 hours with gentle shaking 28. The brain organoids were then washed with 2×1 mL PBS 30, and fresh media and CA or cladoniamide C (CC) added to the desired concentration 32 prior to incubation for the desired time at 37° C. 34. The supernatant was collected and frozen at −86° C. 36 prior to analysis and the brain organoids transferred to an Eppendorf with paraformaldehyde for electron microscopy 38.
FIG. 18 is a plot showing the anti-ZIKV activity of cladoniamide A (incubation with 1 μM CA for 72 hours; 2 biological replicates, each with 4 organoids/well) using four brain organoid systems. There was a greater than 4-log reduction in extracellular ZIKV titer when treated with CA. […] FIGS. 20 and 21 show plots showing the anti-ZIKV activity of CA and CC (incubation with 10 μM CA or CC for 69 hours, MOI 1; 4 technical replicates as there were 4 organoids/[…]).

This is an account of results in US12643899B2, “Antiviral agents, uses thereof and methods for their preparation” (The University of British Columbia, priority 2020, dated 2026).

SMILES strings stand for the structures. Like-named read-outs stand apart in the source and are kept apart here.

T1 sequence (P27449 whole entry, looked up): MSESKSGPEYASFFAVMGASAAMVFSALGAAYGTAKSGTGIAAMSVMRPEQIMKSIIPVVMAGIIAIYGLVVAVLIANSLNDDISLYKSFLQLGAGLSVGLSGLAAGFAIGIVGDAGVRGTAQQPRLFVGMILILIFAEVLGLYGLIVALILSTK

What is called IC50 is the point on the concentration scale where inhibition reaches its midpoint. On to `COc1c2n(c3ccccc13)[C@]1(O)C(=O)N(C)C(=O)[C@]1(O)c1c-2[nH]c2ccc(Cl)cc12` [CA, (11S,15R)-7-chloro-11,15-dihydroxy-23-methoxy-13-methyl-3,13,16-triazahexacyclo[14.7.0.0^2,10.0^4,9.0^11,15.0^17,22]tricosa-1(23),2(10),4(9),5,7,17,19,21-octaene-12,14-dione], for which the “activity against Dengue virus 2 in vitro” value in the assay with DENV-2 (1-20 μM, FIG. 8 upper plots) is “good activity”. For the same compound, the IC50 with DENV-2 (Dengue virus, DENV2, DENV-2, intracellular dsRNA (Cellomics)) was 2300 nM; in the assay with ZIKV [1] it was 80 nM; with DENV-4 (Dengue virus, DENV4, DENV-4, intracellular dsRNA (Cellomics)), 3200 nM. In addition, at V-ATPase, the “vital staining with acridine orange of intracellular organelles” value is given as “inhibited vital staining”. Further, the “activity against Dengue virus 4 in vitro” value in the assay with DENV-4 (1-20 μM, FIG. 8 lower plots) is “good activity”. Also, the EC50 was determined as 5 nM in the assay with SARS-CoV-2 (Severe acute respiratory syndrome coronavirus 2, Caco-2, read-out: ED50, intracellular SARS-CoV-2 nucleocapsid protein, Caco-2 cells, 3 hours pre-treatment) and 2 nM in the assay with SARS-CoV-2 (Severe acute respiratory syndrome coronavirus 2, Caco-2, read-out: ED50, intracellular viral RNA, Caco-2 cells, 3 hours pre-treatment). Besides, the “reduction in extracellular ZIKV titer” value in the assay with ZIKV [2] is reported as “greater than 4 log”.
